Key:
[1] = acute in vivo toxicity after intravenous injection; design: species or system mouse
Experimental: Acute in vivo toxicity. All animal experiments were performed in accordance with protocols approved by the Institutional Animal Care and Use Committee of MSK and followed the National Institute of Health guidelines for animal welfare. Six athymic nude mice 6-8 weeks old were purchased from Envigo RMS, Inc. An intravenous (IV) catheter was placed in tail vein of each mouse and they were anesthetized using Isoflurane (Novaplus, Telangana-India). Anesthesia was maintained using 1.0 to 1.5 L/min of Isoflurane and 2 L/min of oxygen. Three animals were injected with 68 μM, 7 nmol Hsp1a-FL in 100 μL of PBS, and the other three with […], of PBS. Animals were monitored using a rodent surgical monitor (Indus instruments, Houston, Tex.) before, during, and up to 16 minutes after injection. Numeric data points represent averaged values of 5±1 seconds duration. Data was collected before injection, 15 seconds after injection, 5 minutes after injection and 15 minutes after injection. Mouse body core temperature was measured by placing a rectal probe and electronically regulated via a surgical platform. The high-resolution electrocardiogram (EKG) was measured by placing non-invasive electrodes on the 4 paws and electrical contact was assured using a conducting gel (Electrode cream, Indus instruments, Houston, Tex.). Heart rate was automatically calculated from the R-R peaks derived from the EKG signal. Peripheral capillary oxygen saturation (SpO2) was non-invasively measured by placing a clip sensor on the animal's left thigh.
Statistical Analysis. Data were statistically analyzed by generalized estimating equations followed by LSD post hoc test when appropriate using SPSS 23.0. During animal toxicity studies, data points representing loss of signal were excluded from the analysis. Loss of signal was defined by a brief contact loss between the monitoring equipment and the mice (creating a “false” zero or −1 result). Loss of signal was corrected by placing the electrode in close contact to the mice. Average and standard deviations were calculated for each mouse.
Unless otherwise stated, data points represent mean values and error bars represent the standard deviation of biological replicates (mean±SEM). All p-values were calculated using a Student's unpaired t-test. Statistical significance was considered for p-values<0.05 and as follows: ns=not significant, *p<0.05, **p<0.01, ***p<0.001. Mann-Whitney tests were used for analysis of the unpaired samples (e.g. vital signs in mice injected with Hsp1a and mice from the control group) and the Wilcoxon test was used for analysis of paired samples (e.g. vital signs from same mouse before and after injection). Statistical significance was determined with alpha=0.05. Analysis and figures were prepared in GraphPad Prism 8.

hNav1.7 = target: T1, hNav1.7 (Homo sapiens, UniProt Q15858); test: automated whole-cell patch clamp (QPatch 16X), HEK293-hNav1.7; type: cell-based
T1 construct: host or cells: HEK293
T1 sequence (Q15858 whole entry): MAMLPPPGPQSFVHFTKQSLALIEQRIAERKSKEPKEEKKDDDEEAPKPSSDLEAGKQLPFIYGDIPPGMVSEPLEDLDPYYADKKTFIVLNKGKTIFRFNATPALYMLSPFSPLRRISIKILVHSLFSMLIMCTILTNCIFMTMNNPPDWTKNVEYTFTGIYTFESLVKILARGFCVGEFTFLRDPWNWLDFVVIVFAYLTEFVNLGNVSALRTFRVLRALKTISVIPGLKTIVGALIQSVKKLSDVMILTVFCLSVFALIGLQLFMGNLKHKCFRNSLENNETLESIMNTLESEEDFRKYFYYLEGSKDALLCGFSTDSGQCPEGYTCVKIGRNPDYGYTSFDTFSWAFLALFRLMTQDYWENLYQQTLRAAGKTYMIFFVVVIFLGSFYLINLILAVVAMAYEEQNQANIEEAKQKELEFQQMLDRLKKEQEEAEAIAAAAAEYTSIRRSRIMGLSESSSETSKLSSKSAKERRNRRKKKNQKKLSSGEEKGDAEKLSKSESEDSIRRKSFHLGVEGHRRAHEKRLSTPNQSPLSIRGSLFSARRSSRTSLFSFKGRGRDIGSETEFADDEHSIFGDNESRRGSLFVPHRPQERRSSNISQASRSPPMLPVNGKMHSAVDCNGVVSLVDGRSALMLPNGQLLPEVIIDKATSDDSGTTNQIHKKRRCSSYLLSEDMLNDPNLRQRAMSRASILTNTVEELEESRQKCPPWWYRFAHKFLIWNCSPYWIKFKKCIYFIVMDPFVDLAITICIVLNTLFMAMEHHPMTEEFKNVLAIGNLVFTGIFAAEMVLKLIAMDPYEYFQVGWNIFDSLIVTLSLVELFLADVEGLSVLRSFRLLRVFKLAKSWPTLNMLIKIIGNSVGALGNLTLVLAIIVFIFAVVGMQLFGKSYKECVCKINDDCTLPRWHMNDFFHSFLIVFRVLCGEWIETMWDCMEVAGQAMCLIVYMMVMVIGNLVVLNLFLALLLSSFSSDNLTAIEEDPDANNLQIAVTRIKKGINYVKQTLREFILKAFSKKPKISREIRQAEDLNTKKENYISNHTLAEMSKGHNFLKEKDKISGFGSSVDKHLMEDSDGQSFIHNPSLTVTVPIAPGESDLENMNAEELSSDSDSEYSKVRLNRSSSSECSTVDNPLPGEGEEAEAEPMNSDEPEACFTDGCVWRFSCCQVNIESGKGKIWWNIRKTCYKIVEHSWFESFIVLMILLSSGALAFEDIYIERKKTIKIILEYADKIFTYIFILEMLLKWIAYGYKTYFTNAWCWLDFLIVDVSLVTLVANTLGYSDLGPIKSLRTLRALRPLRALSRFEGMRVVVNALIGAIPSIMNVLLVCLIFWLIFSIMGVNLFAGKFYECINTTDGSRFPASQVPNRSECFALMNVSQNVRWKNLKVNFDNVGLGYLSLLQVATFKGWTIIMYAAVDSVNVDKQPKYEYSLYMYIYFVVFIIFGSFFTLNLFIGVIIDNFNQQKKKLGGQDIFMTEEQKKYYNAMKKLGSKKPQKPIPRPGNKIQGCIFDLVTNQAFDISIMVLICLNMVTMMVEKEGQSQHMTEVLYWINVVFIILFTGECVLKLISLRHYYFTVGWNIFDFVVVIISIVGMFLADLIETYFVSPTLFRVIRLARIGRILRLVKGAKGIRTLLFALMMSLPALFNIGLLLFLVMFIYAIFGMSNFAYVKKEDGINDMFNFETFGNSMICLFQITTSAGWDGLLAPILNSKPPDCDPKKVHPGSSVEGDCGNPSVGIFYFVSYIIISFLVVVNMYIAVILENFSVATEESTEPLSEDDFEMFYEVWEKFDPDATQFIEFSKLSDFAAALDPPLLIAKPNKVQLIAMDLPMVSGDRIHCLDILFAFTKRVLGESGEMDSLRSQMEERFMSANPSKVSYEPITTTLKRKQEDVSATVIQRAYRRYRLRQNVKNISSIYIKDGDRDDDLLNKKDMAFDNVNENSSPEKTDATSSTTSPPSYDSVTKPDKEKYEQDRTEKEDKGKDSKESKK
T1 sequence (Q07699 19-218, further chain): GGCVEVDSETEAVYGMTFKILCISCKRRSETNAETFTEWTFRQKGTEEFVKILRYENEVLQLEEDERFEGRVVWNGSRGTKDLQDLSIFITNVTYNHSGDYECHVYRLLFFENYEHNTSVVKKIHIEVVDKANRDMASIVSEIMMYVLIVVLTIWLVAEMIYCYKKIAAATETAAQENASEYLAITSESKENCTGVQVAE

hNav1.1 = target: T2, hNav1.1 (Homo sapiens, UniProt P35498); test: automated whole-cell patch clamp (QPatch 16X), HEK293-hNav1.1; type: cell-based
T2 construct: host or cells: HEK293

hNav1.5 = target: T3, hNav1.5 (Homo sapiens, UniProt Q14524); test: automated whole-cell patch clamp (QPatch 16X), HEK293-hNav1.5; type: cell-based
T3 construct: host or cells: HEK293
T3 sequence (Q14524 whole entry): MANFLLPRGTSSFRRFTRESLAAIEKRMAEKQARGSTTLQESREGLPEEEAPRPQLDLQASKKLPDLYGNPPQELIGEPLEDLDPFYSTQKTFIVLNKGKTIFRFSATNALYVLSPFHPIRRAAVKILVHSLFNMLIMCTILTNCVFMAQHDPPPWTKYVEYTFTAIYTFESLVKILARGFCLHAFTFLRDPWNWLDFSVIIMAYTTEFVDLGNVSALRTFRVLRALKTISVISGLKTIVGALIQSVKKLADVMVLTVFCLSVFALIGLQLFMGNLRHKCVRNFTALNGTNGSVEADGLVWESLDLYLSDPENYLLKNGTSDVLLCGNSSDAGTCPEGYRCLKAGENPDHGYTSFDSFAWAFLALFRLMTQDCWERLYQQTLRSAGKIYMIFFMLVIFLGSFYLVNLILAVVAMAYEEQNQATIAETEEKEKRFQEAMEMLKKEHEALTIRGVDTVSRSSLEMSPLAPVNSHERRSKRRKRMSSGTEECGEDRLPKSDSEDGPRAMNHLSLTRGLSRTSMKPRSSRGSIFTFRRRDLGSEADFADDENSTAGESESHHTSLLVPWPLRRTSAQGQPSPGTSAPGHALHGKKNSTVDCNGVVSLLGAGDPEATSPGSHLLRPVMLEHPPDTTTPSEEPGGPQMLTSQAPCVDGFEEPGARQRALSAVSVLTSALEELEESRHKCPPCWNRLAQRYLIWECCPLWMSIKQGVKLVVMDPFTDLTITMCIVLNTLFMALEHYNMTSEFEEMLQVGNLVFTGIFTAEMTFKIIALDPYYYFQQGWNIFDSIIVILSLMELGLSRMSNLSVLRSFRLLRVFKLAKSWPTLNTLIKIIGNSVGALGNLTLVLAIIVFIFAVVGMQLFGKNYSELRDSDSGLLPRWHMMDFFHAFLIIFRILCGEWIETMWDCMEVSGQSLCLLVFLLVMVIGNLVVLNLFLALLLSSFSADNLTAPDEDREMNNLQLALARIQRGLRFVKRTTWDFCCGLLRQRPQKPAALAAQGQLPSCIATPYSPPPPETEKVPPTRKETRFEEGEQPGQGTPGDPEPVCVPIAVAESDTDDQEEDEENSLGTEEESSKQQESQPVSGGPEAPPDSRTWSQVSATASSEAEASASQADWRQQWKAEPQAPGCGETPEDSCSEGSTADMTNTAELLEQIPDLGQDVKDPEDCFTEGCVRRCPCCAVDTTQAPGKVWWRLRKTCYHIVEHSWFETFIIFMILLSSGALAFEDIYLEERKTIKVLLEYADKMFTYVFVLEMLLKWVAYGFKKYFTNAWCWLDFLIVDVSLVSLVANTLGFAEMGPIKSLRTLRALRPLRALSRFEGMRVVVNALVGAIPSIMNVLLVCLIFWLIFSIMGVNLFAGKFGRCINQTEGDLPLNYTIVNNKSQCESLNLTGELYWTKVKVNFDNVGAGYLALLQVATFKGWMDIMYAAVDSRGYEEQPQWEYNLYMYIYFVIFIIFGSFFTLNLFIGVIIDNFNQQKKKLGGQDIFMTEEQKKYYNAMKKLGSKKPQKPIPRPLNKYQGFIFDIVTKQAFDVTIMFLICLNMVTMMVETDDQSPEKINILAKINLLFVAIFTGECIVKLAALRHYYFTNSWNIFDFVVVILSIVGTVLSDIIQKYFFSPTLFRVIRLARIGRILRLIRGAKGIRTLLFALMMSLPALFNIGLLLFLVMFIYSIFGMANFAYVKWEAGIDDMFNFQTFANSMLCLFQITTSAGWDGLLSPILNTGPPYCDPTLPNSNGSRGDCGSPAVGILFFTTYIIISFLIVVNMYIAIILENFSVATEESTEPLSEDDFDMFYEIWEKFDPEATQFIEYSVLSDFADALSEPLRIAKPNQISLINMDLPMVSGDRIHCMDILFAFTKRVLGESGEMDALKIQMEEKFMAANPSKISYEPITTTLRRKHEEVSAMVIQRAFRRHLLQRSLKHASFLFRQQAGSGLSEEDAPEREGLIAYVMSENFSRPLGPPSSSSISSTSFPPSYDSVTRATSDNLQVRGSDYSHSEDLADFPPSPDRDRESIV

[2] = 10 μM, 37° C.
hNav1.2 = target: T4, hNav1.2 (Homo sapiens, UniProt Q99250); test: automated whole-cell patch clamp (QPatch 16X), HEK293-hNav1.2; type: cell-based
T4 construct: host or cells: HEK293

hNav1.3 = target: T5, hNav1.3 (Homo sapiens, UniProt Q9NY46); test: automated whole-cell patch clamp (QPatch 16X), HEK293-hNav1.3; type: cell-based
T5 construct: host or cells: HEK293

[3] = before, 15 seconds, 5 and 15 minutes after injection

**Q.** Which “effect on heart muscle (heart rate)” value [1, 3] does the source give for `CC[C@H](C)[C@H](NC(=O)[C@H](CCCCN)NC(=O)[C@@H]1CSSC[C@@H]2NC(=O)[C@@H]3CCCN3C(=O)[C@H](CCCNC(=N)N)NC(=O)[C@H](CCC(=O)O)NC(=O)[C@H](CO)NC(=O)[C@H](CC(=O)O)NC(=O)[C@@H]3CSSC[C@H](NC(=O)[C@H](C(C)C)NC(=O)[C@H](CC(C)C)NC(=O)CNC(=O)[C@H](CCC(=O)O)NC(=O)[C@H](CSSC[C@H](NC(=O)[C@@H](N)Cc4ccc(O)cc4)C(=O)N[C@@H](CCC(N)=O)C(=O)N[C@@H](CCCCN)C(=O)N[C@@H](Cc4ccccc4)C(=O)N[C@@H](CC(C)C)C(=O)N[C@@H](Cc4c[nH]c5ccccc45)C(=O)N[C@@H]([C@@H](C)O)C(=O)N3)NC2=O)C(=O)N[C@@H](CCCNC(=N)N)C(=O)N[C@@H](CC(C)C)C(=O)N[C@@H](Cc2c[nH]c3ccccc23)C(=O)N1)C(=O)N[C@@H](CC(N)=O)C(N)=O` [sHsp1a] here?
**A.** no effect

**Q.** And the “effect on the respiratory musculature (oxygen saturation in peripheral blood)” value [1, 3]?
**A.** no effect

**Q.** And the “effect on mouse body temperature” value ([1]; mouse, in vivo)?
**A.** no effect

**Q.** What about the hNav1.7 currents blocked (hNav1.7; at 200 nM) of the same compound?
**A.** 70%

**Q.** And the inhibition at 2 µM (hNav1.7; at 2 μM, read-out: current inhibition hNav1.7)?
**A.** 75%

**Q.** What about the IC50 (hNav1.7; mean±S.E.M, read-out: pIC50 on hNav1.7 (converted)) of the same compound?
**A.** 10.5 nM

**Q.** And the hNav1.1 currents blocked (hNav1.1; at 200 nM)?
**A.** 30%

**Q.** And the inhibition at 2 µM (hNav1.1; at 2 μM, read-out: current inhibition hNav1.1)?
**A.** 75%

**Q.** What about the IC50 (hNav1.1; mean±S.E.M, read-out: pIC50 on hNav1.1 (converted)) of the same compound?
**A.** 407 nM

**Q.** What about the “inhibition of hNav1.5 currents” value (hNav1.5; at 200 nM) of the same compound?
**A.** did not show any significant inhibition

**Q.** What about the “sensitivity of hNav1.5” value (hNav1.5; at 2 μM) of the same compound?
**A.** insensitive

**Q.** What about the inhibition at 2 µM (hNav1.5; at 2 μM, read-out: max. current inhibition hNav1.5) of the same compound?
**A.** < 50%

**Q.** What about the IC50 (hNav1.5; read-out: pIC50 on hNav1.5 (converted)) of the same compound?
**A.** > 1000 nM

**Q.** What about the “amount in human serum after 24 hours” value [2] of the same compound?
**A.** remained constant

**Q.** And the hNav1.2 currents blocked (hNav1.2; at 200 nM)?
**A.** 30%

**Q.** What about the inhibition at 2 µM (hNav1.2; at 2 μM, read-out: max. current inhibition hNav1.2) of the same compound?
**A.** 60%

**Q.** What about the IC50 (hNav1.2; mean±S.E.M, read-out: pIC50 on hNav1.2 (converted)) of the same compound?
**A.** 302 nM

**Q.** What about the “inhibition of hNav1.3 currents” value (hNav1.3; at 200 nM) of the same compound?
**A.** did not show any significant inhibition

**Q.** What about the inhibition at 2 µM (hNav1.3; at 2 μM, read-out: max. current inhibition hNav1.3) of the same compound?
**A.** < 50%

**Q.** And the IC50 (hNav1.3; read-out: pIC50 on hNav1.3 (converted))?
**A.** > 1000 nM

From US20220089663A1, “PROTEINS AND FLUOROPHORE-CONTAINING COMPOUNDS SELECTIVE FOR NaV1.7” (MEMORIAL SLOAN KETTERING CANCER CENTER, priority 2019, published 2022)
